Laboratory results as given in patent publication US20070128217A1 (priority 2003, published 2007).

Legend:
[1] = system: rabbit serum obtained by immunizing a rabbit with the SARS-CoV strain Frankfurt 1; type: binding; parameters: Binding of a rabbit serum to linear peptides / Binding of a rabbit serum to looped peptides / Rabbit serum linear peptides / Rabbit serum looped peptides / Binding of a rabbit serum to linear peptides of protein N of SARS-CoV Urbani (Rabbit serum linear peptides) / Binding of a rabbit serum to looped/cyclic peptides of protein N of SARS-CoV Urbani (Rabbit serum looped peptides): unit not given here
[2] = system: control sera (pooled serum of ten healthy LUMC hospital workers; commercial negative donor pooled serum from the Dutch bloodbank); type: binding, human; parameters: Binding of Control serum LUMC to linear peptides / Binding of Control serum Blood-bank to linear peptides / Binding of Control serum LUMC to looped peptides / Binding of Control Serum Blood-Bank to Looped peptides / Binding of Control serum LUMC to linear peptides of the protein M of SARS-CoV Urbani / Binding of Control serum Blood-bank to linear peptides of the protein M of SARS-CoV Urbani / Binding of Control serum LUMC to looped peptides of the protein M of SARS-CoV Urbani / Binding of Control Serum Blood-Bank to Looped peptides of the protein M of SARS-CoV Urbani: unit not given here
[3] = system: antibodies in sera from SARS patients (sera 1a, 1b, 2, 6, 37, 62, London, SARS-yellow, SARS-green); type: binding, human; parameters: Binding of serum 6 to linear peptides of protein X1 of SARS-CoV Urbani / Binding of serum 37 to linear peptides of protein X1 of SARS-CoV Urbani / Binding of serum 6 to looped/cyclic peptide (PEPSCAN-ELISA) / Binding of serum 37 to looped/cyclic peptide (PEPSCAN-ELISA) / Binding of serum 37 to looped/cyclic peptides of protein X1 of SARS-CoV Urbani / Binding of serum 6 to linear peptides of protein X2 / Binding of serum 37 to linear peptides of protein X2 / Binding of serum 37 to looped/cyclic peptides of protein X2 of SARS-CoV Urbani / Binding of serum 6 to linear peptides of protein M of SARS-CoV Urbani / Binding of serum 37 to linear peptides of protein M of SARS-CoV Urbani / Binding of serum 6 to looped/cyclic peptides of protein M of SARS-CoV Urbani / Binding of serum 37 to looped/cyclic peptides of protein M of SARS-CoV Urbani / Binding of serum 6 to linear peptides of protein X3 of SARS-CoV Urbani / Binding of serum 37 to linear peptides of protein X3 of SARS-CoV Urbani / Binding of serum 37 to looped/cyclic peptides of protein X3 of SARS-CoV Urbani / Binding of serum 6 to linear peptides of protein X4 of SARS-CoV Urbani / Binding of serum 37 to linear peptides of protein X4 of SARS-CoV Urbani / Binding of serum 37 to looped/cyclic peptides of protein X4 of SARS-CoV Urbani / Binding of serum 6 to linear peptides of protein X5 of SARS-CoV Urbani / Binding of serum 37 to linear peptides of protein X5 of SARS-CoV Urbani / Binding of serum 37 to looped/cyclic peptides of protein X5 of SARS-CoV Urbani / Binding of serum 6 to linear peptides of protein N of SARS-CoV Urbani / Binding of serum 37 to linear peptides of protein N of SARS-CoV Urbani / Binding of serum 6 to linear peptide (PEPSCAN-ELISA) / Binding of serum 1a to looped/cyclic peptides of protein N of SARS-CoV Urbani / Binding of serum 1b to looped/cyclic peptides of protein N of SARS-CoV Urbani / Binding of serum 2 to looped/cyclic peptides of protein N of SARS-CoV Urbani / Binding of serum 6 to looped/cyclic peptides of protein N of SARS-CoV Urbani / Binding of serum 37 to looped/cyclic peptides of protein N of SARS-CoV Urbani / Binding of serum 62 to looped/cyclic peptides of protein N of SARS-CoV Urbani / Binding of serum London to looped/cyclic peptides of protein N of SARS-CoV Urbani / Binding of serum SARS-green to looped/cyclic peptides of protein N of SARS-CoV Urbani: unit not given here

Question: Which “Binding of a rabbit serum to linear peptides” value [1] does the source give for RLLACLCKHKKVSTN here?
Answer: The value was 0.3.

Question: What about the “Binding of a rabbit serum to looped peptides” value [1] of the same sequence?
Answer: Its value is 0.4.

Question: And the “Binding of Control Serum Blood-Bank to Looped peptides” value [2]?
Answer: Its value is 0.3.

Question: What about the “Binding of Control serum Blood-bank to linear peptides” value [2] of the same sequence?
Answer: Its value is 0.9.

Question: What about the “Binding of Control serum LUMC to linear peptides” value [2] of the same sequence?
Answer: The value was 0.7.

Question: What about the “Binding of Control serum LUMC to looped peptides” value [2] of the same sequence?
Answer: Its value is 0.4.

Question: And the “Binding of serum 1a to looped/cyclic peptides of protein X2 of SARS-CoV Urbani” value [3]?
Answer: The value was 0.3.

Question: And the “Binding of serum 1b to looped/cyclic peptides of protein X2 of SARS-CoV Urbani” value [3]?
Answer: Its value is 0.2.

Question: What about the “Binding of serum 2 to looped/cyclic peptides of protein X2 of SARS-CoV Urbani” value [3] of the same sequence?
Answer: The value was 0.3.

Question: What about the “Binding of serum 6 to looped/cyclic peptides of protein X2 of SARS-CoV Urbani” value [3] of the same sequence?
Answer: Its value is 0.3.

Question: And the “Binding of serum 37 to looped/cyclic peptides of protein X2 of SARS-CoV Urbani” value [3]?
Answer: Its value is 0.3.

Question: And the “Binding of serum 62 to looped/cyclic peptides of protein X2 of SARS-CoV Urbani” value [3]?
Answer: Its value is 0.5.

Question: What about the “Binding of serum London to looped/cyclic peptides of protein X2 of SARS-CoV Urbani” value [3] of the same sequence?
Answer: The value was 0.2.

Question: What about the “Binding of serum SARS-green to looped/cyclic peptides of protein X2 of SARS-CoV Urbani” value [3] of the same sequence?
Answer: The value was 0.3.

Question: What about the “Binding of serum SARS-yellow to looped/cyclic peptides of protein X2 of SARS-CoV Urbani” value [3] of the same sequence?
Answer: The value was 0.4.

Question: And the “Recognition of the peptide by sera of SARS-CoV infected individuals, and form (linear, looped/cyclic) in which it is recognized” value [3]?
Answer: The value was “recognized in linear form”.

Question: With RNRFLYIIKLVFLWL as the sequence, how does the “Rabbit serum linear peptides” value [1] read?
Answer: Its value is 0.4.

Question: And the “Rabbit serum looped peptides” value [1]?
Answer: The value was 0.5.

Question: And the “Binding of Control Serum Blood-Bank to Looped peptides of the protein M of SARS-CoV Urbani” value [2]?
Answer: The value was 0.7.

Question: What about the “Binding of Control serum Blood-bank to linear peptides of the protein M of SARS-CoV Urbani” value [2] of the same sequence?
Answer: Its value is 0.6.

Question: And the “Binding of Control serum LUMC to linear peptides of the protein M of SARS-CoV Urbani” value [2]?
Answer: The value was 0.7.

Question: And the “Binding of Control serum LUMC to looped peptides of the protein M of SARS-CoV Urbani” value [2]?
Answer: Its value is 0.8.

Question: And the “Binding of serum 1a to linear peptides of protein M of SARS-CoV Urbani” value [3]?
Answer: The value was 0.6.

Question: What about the “Binding of serum 1b to linear peptides of protein M of SARS-CoV Urbani” value [3] of the same sequence?
Answer: The value was 0.5.

Question: What about the “Binding of serum 2 to linear peptides of protein M of SARS-CoV Urbani” value [3] of the same sequence?
Answer: The value was 0.4.

Question: What about the “Binding of serum 6 to linear peptides of protein M of SARS-CoV Urbani” value [3] of the same sequence?
Answer: The value was 0.5.

Question: What about the “Binding of serum 37 to linear peptides of protein M of SARS-CoV Urbani” value [3] of the same sequence?
Answer: The value was 0.4.

Question: What about the “Binding of serum 62 to linear peptides of protein M of SARS-CoV Urbani” value [3] of the same sequence?
Answer: Its value is 0.5.

Question: What about the “Binding of serum London to linear peptides of protein M of SARS-CoV Urbani” value [3] of the same sequence?
Answer: The value was 0.3.

Question: What about the “Binding of serum SARS-green to linear peptides of protein M of SARS-CoV Urbani” value [3] of the same sequence?
Answer: Its value is 0.4.

Question: What about the “Binding of serum SARS-yellow to linear peptides of protein M of SARS-CoV Urbani” value [3] of the same sequence?
Answer: Its value is 0.3.

Question: And the “Recognition of the peptide by sera of SARS-CoV infected individuals, and form (linear, looped/cyclic) in which it is recognized” value [3]?
Answer: The value was “recognized in looped/cyclic form”.

Question: For RSMWSFNPETNILLN, which “Rabbit serum linear peptides” value [1] is on record?
Answer: The value was 0.4.

Question: And the “Rabbit serum looped peptides” value [1]?
Answer: The value was 0.3.

Question: What about the “Binding of Control Serum Blood-Bank to Looped peptides of the protein M of SARS-CoV Urbani” value [2] of the same sequence?
Answer: The value was 0.7.

Question: And the “Binding of Control serum Blood-bank to linear peptides of the protein M of SARS-CoV Urbani” value [2]?
Answer: Its value is 0.8.

Question: What about the “Binding of Control serum LUMC to linear peptides of the protein M of SARS-CoV Urbani” value [2] of the same sequence?
Answer: Its value is 0.5.

Question: And the “Binding of Control serum LUMC to looped peptides of the protein M of SARS-CoV Urbani” value [2]?
Answer: Its value is 0.7.

Question: And the “Binding of serum 1a to linear peptides of protein M of SARS-CoV Urbani” value [3]?
Answer: Its value is 0.8.

Question: And the “Binding of serum 1a to looped/cyclic peptides of protein M of SARS-CoV Urbani” value [3]?
Answer: The value was 0.8.

Question: And the “Binding of serum 1b to linear peptides of protein M of SARS-CoV Urbani” value [3]?
Answer: Its value is 0.6.

Question: And the “Binding of serum 1b to looped/cyclic peptides of protein M of SARS-CoV Urbani” value [3]?
Answer: The value was 0.4.

Question: What about the “Binding of serum 2 to linear peptides of protein M of SARS-CoV Urbani” value [3] of the same sequence?
Answer: Its value is 0.6.

Question: And the “Binding of serum 2 to looped/cyclic peptides of protein M of SARS-CoV Urbani” value [3]?
Answer: Its value is 0.8.

Question: What about the “Binding of serum 6 to linear peptides of protein M of SARS-CoV Urbani” value [3] of the same sequence?
Answer: The value was 0.3.

Question: What about the “Binding of serum 6 to looped/cyclic peptides of protein M of SARS-CoV Urbani” value [3] of the same sequence?
Answer: Its value is 0.7.

Question: And the “Binding of serum 37 to linear peptides of protein M of SARS-CoV Urbani” value [3]?
Answer: Its value is 0.8.

Question: What about the “Binding of serum 37 to looped/cyclic peptides of protein M of SARS-CoV Urbani” value [3] of the same sequence?
Answer: Its value is 0.8.

Question: What about the “Binding of serum 62 to linear peptides of protein M of SARS-CoV Urbani” value [3] of the same sequence?
Answer: The value was 0.7.

Question: And the “Binding of serum 62 to looped/cyclic peptides of protein M of SARS-CoV Urbani” value [3]?
Answer: Its value is 0.8.

Question: And the “Binding of serum London to linear peptides of protein M of SARS-CoV Urbani” value [3]?
Answer: Its value is 0.3.

Question: What about the “Binding of serum London to looped/cyclic peptides of protein M of SARS-CoV Urbani” value [3] of the same sequence?
Answer: The value was 0.2.

Question: What about the “Binding of serum SARS-green to linear peptides of protein M of SARS-CoV Urbani” value [3] of the same sequence?
Answer: The value was 0.2.

Question: What about the “Binding of serum SARS-green to looped/cyclic peptides of protein M of SARS-CoV Urbani” value [3] of the same sequence?
Answer: Its value is 0.4.

Question: What about the “Binding of serum SARS-yellow to linear peptides of protein M of SARS-CoV Urbani” value [3] of the same sequence?
Answer: The value was 0.1.

Question: And the “Binding of serum SARS-yellow to looped/cyclic peptides of protein M of SARS-CoV Urbani” value [3]?
Answer: The value was 0.7.
